Data on 14 molecules can be found in US7351700B2, “Aminomethylpyrimidines as allosteric enhancers of the GABAB receptors” (Hoffmann-La Roche Inc., priority 2004, dated 2008).

Broadly, the Emax is the maximal effect, on the per cent scale that the assay sets. As usually defined, the EC50 is the concentration needed to bring the measured effect to its halfway point.

The conditions of series [1]: rats; cited from earlier work.
For series [2] the following is noted: PO, cited from earlier work.
For series [3] the following is noted: elevated plus maze (rat), elevated zero maze (mice and rats), stress-induced hyperthermia (mice); cited from earlier work.
For series [4] the following is noted: passive avoidance behavioral test in mice and rats; cited from earlier work.
Another series has as its target T1, human GABABR1aR2a (Homo sapiens, UniProt O75899+Q9UBS5).
T1 construct: expressed in transfected cells
The series can be described thus: Intracellular Ca2+ mobilization assay (FLIPR) in CHO-GABABR1aR2a-Gα16 cell. In kind it is cell-based. To be noted: for GABA shift Log [EC50(GABA + 10 μM cp)/EC50(GABA alone)]: 10 μM enhancer applied 15 min before GABA (0.0003-30 μM); for Emax: enhancer 0.001-30 μM in presence of 10 nM GABA (EC10), normalized to 10 μM GABA = 100%, 10 nM GABA = 0%, read-out: Emax (%) at 10 nM GABA alone = 0% 10 μM GABA alone = 100%; for EC50: enhancer concentration-response in presence of 10 nM GABA. How it is done: Intracellular Ca^2+ Mobilization Assay
The Chinese Hamster Ovary (CHO) cells stably expressing human GABABR1aR^2a and Gα16 were seeded at 5×10^4 cells/well in the poly-D-lysine treated, 96-well, black/clear-bottomed plates (BD Biosciences, Palo Alto, Calif.). 24 h later, the cells were loaded for 90 min at 37° C. with 4 μM Flou-4 acetoxymethyl ester (Catalog No. F-14202, Molecular Probes, Eugene, Oreg.) in loading buffer (1×HBSS, 20 mM HEPES, 2.5 mM Probenecid). Hanks' Balanced Salt Solution (HBSS) (10×) (catalog No. 14065-049) and HEPES (1M) (catalog No. 15630-056) were purchased from Invitrogen, Carlsbad, Calif. Probenecid (250 mM) (catalog No. P8761) was from Sigma, Buchs, Switzerland. The cells were washed five times with loading buffer to remove excess dye and intracellular calcium mobilization, [Ca^2+ ]i were measured using a Fluorometric Imaging Plate Reader (FLIPR, Molecular Devices, Menlo Park, Calif.) as described previously (Porter et al., Br. J. Pharmacol., 128, 13-20, 1999). The enhancers were applied 15 min before the application of the GABA. For GABA shift assay, concentration-response curves of GABA (0.0003-30 μM) were determined in the absence and presence of 10 μM enhancer. The GABA-shift is defined as Log [EC50 (GABA+10 μM enhancer)/EC50 (GABA alone)]. The % maximum enhancing effect (% Emax) potency (EC50 value) of each enhancer was determined from concentration-response curve of the enhancer (0.001-30 μM) in the presence of 10 nM (GABA) (EC10). Responses were measured as peak increase in fluorescence minus basal, normalized to the maximal stimulatory effect induced by 10 μM GABA alone (considered 100%) and 10 nM GABA alone (considered 0%). The data were fitted with the equation Y=100+(Max −100)/(1+(EC50/[drug])^n) where Max is the maximum effect, EC50 the concentration eliciting a half-maximum effect and n the Hill slope.

SMILES strings stand for the structures.

T1 sequence (Q9UBS5 15-961 limits assumed): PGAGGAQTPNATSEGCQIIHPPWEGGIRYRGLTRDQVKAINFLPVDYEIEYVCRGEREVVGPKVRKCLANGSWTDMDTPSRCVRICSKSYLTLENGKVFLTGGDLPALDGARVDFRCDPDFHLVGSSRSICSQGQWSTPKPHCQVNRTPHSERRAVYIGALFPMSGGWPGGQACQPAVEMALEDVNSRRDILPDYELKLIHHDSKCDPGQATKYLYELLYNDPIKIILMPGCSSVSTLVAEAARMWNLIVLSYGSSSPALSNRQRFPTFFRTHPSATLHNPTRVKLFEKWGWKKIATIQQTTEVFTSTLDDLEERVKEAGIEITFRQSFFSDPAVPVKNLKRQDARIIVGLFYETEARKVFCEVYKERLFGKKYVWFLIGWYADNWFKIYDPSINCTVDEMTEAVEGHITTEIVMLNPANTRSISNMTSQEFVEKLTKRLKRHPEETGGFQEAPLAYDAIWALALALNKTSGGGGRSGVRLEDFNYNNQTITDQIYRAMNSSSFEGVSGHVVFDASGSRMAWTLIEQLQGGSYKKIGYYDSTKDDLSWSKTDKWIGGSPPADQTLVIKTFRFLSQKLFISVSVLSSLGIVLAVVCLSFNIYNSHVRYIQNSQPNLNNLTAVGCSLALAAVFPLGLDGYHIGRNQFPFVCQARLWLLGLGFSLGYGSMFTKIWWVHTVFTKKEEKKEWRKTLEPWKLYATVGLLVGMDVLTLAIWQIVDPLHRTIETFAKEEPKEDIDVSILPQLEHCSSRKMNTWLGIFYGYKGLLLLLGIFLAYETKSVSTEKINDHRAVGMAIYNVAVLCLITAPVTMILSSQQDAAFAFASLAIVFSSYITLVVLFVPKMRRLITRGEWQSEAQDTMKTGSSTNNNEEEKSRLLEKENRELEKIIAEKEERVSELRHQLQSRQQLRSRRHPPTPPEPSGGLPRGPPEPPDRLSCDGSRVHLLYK
T1 sequence (O75899 42-941): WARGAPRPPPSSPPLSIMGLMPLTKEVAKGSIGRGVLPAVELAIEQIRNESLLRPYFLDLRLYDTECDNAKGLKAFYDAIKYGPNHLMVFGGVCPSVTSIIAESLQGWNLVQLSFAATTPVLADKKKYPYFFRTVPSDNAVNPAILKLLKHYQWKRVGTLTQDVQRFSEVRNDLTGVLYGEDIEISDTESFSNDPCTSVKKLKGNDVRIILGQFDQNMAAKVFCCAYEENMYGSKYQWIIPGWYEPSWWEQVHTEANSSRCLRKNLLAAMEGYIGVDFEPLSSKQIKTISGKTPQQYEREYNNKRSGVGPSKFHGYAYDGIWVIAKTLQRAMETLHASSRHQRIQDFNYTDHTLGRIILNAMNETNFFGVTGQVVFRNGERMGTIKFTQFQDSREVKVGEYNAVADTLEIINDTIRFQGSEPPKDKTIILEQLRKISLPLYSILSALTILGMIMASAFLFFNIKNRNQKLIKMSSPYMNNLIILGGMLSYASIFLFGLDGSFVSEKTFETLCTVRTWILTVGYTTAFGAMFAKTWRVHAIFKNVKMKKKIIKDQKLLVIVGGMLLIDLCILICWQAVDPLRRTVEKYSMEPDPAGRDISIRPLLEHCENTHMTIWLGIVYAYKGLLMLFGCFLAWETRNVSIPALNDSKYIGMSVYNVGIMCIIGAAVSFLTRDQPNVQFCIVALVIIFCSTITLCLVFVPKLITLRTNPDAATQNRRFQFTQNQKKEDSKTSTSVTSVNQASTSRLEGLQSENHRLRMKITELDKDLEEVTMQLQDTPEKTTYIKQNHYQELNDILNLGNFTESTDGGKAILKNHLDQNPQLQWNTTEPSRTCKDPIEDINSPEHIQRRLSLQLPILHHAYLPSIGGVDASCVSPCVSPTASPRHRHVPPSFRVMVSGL

Consider `CC(C)(CO)Cc1cc(C(C)(C)C)c(O)c(C(C)(C)C)c1` [CGP7930, 2,6-di-tert-butyl-4-(3-hydroxy-2,2-dimethyl-propyl)-phenol], for which the decreasing cocaine self-administration result in series [1] is reported as “effective”.

In the case of `CSc1nc(NC2CCCC2)c([N+](=O)[O-])c(NC2CCCC2)n1` [GS39783, N,N_-dicyclopentyl-2-methylsulfanyl-5-nitro-pyrimidine-4,6-diamine], the decreasing cocaine self-administration entry in series [1] was “effective”. Besides, the “effect on spontaneous locomotor activity, rotarod, body temperature and traction test” value in series [2] (0.1-200 mg/kg) is reported as “no effect”. Further, in series [3], the anxiolytic-like effects entry was “exhibited anxiolytic-like effects”. In addition, the “effect on cognition performance” value in series [4] is on record as “did not have any effect”.

Turning to `CCCCCCSc1nc(C)cc(CN2C[C@@H]3C[C@@H](C2)c2cccc(=O)n2C3)n1` [Example 35, (1S,5S)-3-(2-Hexylsulfanyl-6-methyl-pyrimidin-4-ylmethyl)-1,2,3,4,5,6-hexahydro-1,5-methano-pyrido [1,2-a][1,5]diazocin-8-one], at human GABABR1aR2a, the “GABA shift Log [EC50(GABA + 10 μM cp)/EC50(GABA alone)]” value (“GABA shift Log” for short) is on record as −0.92, the Emax worked out at 62% and the half-maximal effective concentration (EC50) was found to be 1.8 µM.

With `CCCCCCSc1nc(CC)cc(CN2CCOCC2)n1` [Example 41, 4-(2-Hexylsulfanyl-6-ethyl-pyrimidin-4-ylmethyl)-morpholine], at human GABABR1aR2a, the “GABA shift Log” value was −0.86, the Emax turned out to be 60% and the EC50 is 4.1 µM.

For `CCCCCCSc1nc(C)cc(C(C)N2CCOCC2)n1` (stereo not drawn) [Example 43, 4-[1-(2-Hexylsulfanyl-6-methyl-pyrimidin-4-yl)-ethyl]-morpholine], at human GABABR1aR2a, the “GABA shift Log” value was −0.70, the Emax was determined as 49% and the EC50 is 4.4 µM.

With `CCCCCCSc1nc(C)cc(CN2[C@H](C)CCC[C@@H]2C)n1` [Example 38, 4-(cis-2,6-Dimethyl-piperidin-1-ylmethyl)-2-hexylsulfanyl-6-methyl-pyrimidine], on human GABABR1aR2a, the “GABA shift Log” value is recorded as −0.71, the Emax was found to be 61% and the EC50 came to 6.3 µM.

Take `CCCCCCSc1nc(C)cc(CN2C(C)CCCC2C)n1` (stereo not drawn) [Example 37, 4-(2,6-Dimethyl-piperidin-1-ylmethyl)-2-hexylsulfanyl-6-methyl-pyrimidine]: at human GABABR1aR2a, the “GABA shift Log” value is −0.76, the Emax amounted to 74.2% and the EC50 came out at 8.2 µM.

For `CCCCCCSc1nc(CN2CCOCC2)cc(C(F)(F)F)n1` [Example 39, 4-(2-Hexylsulfanyl-6-trifluoromethyl-pyrimidin-4-ylmethyl)-morpholine], on human GABABR1aR2a, the “GABA shift Log” value was −0.48, the Emax turned out to be 62% and the EC50 is 6.4 µM.

With `CCCCCCSc1nc(C)cc(CN2CCOCC2)n1` [Example 1, 4-(2-Hexylsulfanyl-6-methyl-pyrimidin-4-ylmethyl)-morpholine], on human GABABR1aR2a, the “GABA shift Log” value is recorded as −0.75, the maximal effect (Emax) worked out at 46% and the concentration giving a half-maximal response (EC50) was 2.2 µM.

Consider `NCC(CC(=O)O)c1ccc(Cl)cc1` (stereo not drawn) [Baclofen, β-chlorophenyl GABA], for which, in series [2] (2.5-15 mg/kg), the “side effects (spontaneous locomotor activity, rotarod, body temperature, traction test)” value is given as “showed these side effects”.

In the case of `CCCCCCSc1nc(C)cc(CN2CCCC2)n1` [Example 16, 2-Hexylsulfanyl-4-methyl-6-pyrrolidin-1-ylmethyl-pyrimidine], on human GABABR1aR2a, the “GABA shift Log” value is −0.50, the Emax stood at 48% and the EC50 is 8.5 µM.

As for `CCCCCSc1nc(C)cc(CN2CCOCC2)n1` [Example 2, 4-(6-Methyl-2-pentylsulfanyl-pyrimidin-4-ylmethyl)-morpholine], at human GABABR1aR2a, the “GABA shift Log” value is reported as −0.55, the Emax worked out at 52% and the EC50 was found to be 1.7 µM.

In the case of `CCCCCCSc1nc(C)cc(CN2CCCCC2C)n1` (stereo not drawn) [Example 31, 2-Hexylsulfanyl-4-methyl-6-(2-methyl-piperidin-1-ylmethyl)-pyrimidine], on human GABABR1aR2a, the “GABA shift Log” value is −0.69, the Emax amounted to 60% and the EC50 turned out to be 9.6 µM.

`Cc1cc(CN2CCOCC2)nc(SCc2ccc(C(C)(C)C)cc2)n1` [Example 11, 4-[2-(4-tert-Butyl-benzylsulfanyl)-6-methyl-pyrimidin-4-ylmethyl]-morpholine]: at human GABABR1aR2a, the “GABA shift Log” value is on record as −0.60, the Emax turned out to be 41% and the EC50 came to 4.2 µM.
